Data reported in patent US9873659B2, “Solutions of trialkali metal salts of MGDA with an excess of L-enantiomer, their manufacture and use” (BASF SE, priority 2014, dated 2018).

Experiments:
[1] = room temperature; colder solutions may lead to precipitation; cited from earlier work
[2] = Solubility experiments: concentrated aqueous solutions stored and checked for crystallization or precipitation; type: physicochemical; conditions: for sign of crystallization or precipitation on storage: aqueous solution, 90 days at 20° C.; for solids content of the concentrated aqueous solution that stayed free of crystallization or precipitation: concentrated by evaporation of water at 70° C., cooled to ambient temperature, stable 90 days at 20° C.
Procedure: In each case, the solubility refers to MGDA without hydrate water.
It was allowed to cool down to ambient temperature.
The aqueous solution of MGDA-K2.35Na0.65 obtained according to I.4 was concentrated by evaporation of a part of the water at 70° C. until the solids content was 65% by weight. It was allowed to cool down to ambient temperature.

Molecule | concentration of aqueous solution that can be made and stored [1] | sign of crystallization or precipitation on storage ([2]; solids content 64.5% by weight) | solids content of the concentrated aqueous solution that stayed free of crystallization or precipitation [2] | sign of crystallization or precipitation on storage ([2]; solids content 61.1% by weight) | sign of crystallization or precipitation on storage ([2]; solids content 65% by weight)
CC(C(=O)[O-])N(CC(=O)[O-])CC(=O)[O-].[Na+].[Na+].[Na+] (racemic) [racemic MGDA trisodium salt] | about 40 % by weight |  |  |  | 
MGDA-K2.35Na0.65 [MGDA-K2.35Na0.65 obtained according to I.2] |  | did not show any sign of crystallization or precipitation | 64.5 % by weight |  | 
MGDA-K2.35Na0.65 [MGDA-K2.35Na0.65 obtained according to I.3] |  |  | 61.1 % by weight | did not show any sign of crystallization or precipitation | 
MGDA-K2.35Na0.65 [MGDA-K2.35Na0.65 obtained according to I.4] |  |  | 65 % by weight |  | did not show any sign of crystallization or precipitation
